Source: patent US11083714B2, “Selective anti-cancer agent effective for prevention and treatment” (Molecular International Research, Inc., priority 2018, dated 2021)
“Also recorded” adds a separate entry of the source. Where two headings read alike, the source gives them in different places.

What was measured:
LnCap = assay: Cell Proliferation (anti-cancer), LnCap; assay type: cell-based, human
Procedure: (§1) The primary goal of synthesizing de-ethylflavopereirine (compound 13-9-1) was to generate a different compound that still retains the anti-cancer cell activity of flavopereirine (compound 13-7-2). Comparison of the effects of the two compounds on proliferation of a variety of cancer cells confirmed that this goal was achieved. For example, the effect of de-ethylflavopereirine on two human breast cancer cell lines and two human prostate cancer cell lines were analyzed.

RPWE-1 = assay: Cell Proliferation (anti-cancer), RPWE-1; assay type: cell-based, human
Procedure: as §1

[1] = assay type: in vivo; conditions: for time of death of one mouse: male, scid/scid, beige/beige, 48 hr
Procedure: A study with synthetic compounds 13-7-2 (flavopereirine) and 13-9-1 (de-ethylflavopereirine) was conducted to compare the toxicity of the two compounds in animals. The compounds were dissolved in phosphate buffered saline for administration. Both compounds were injected IP in male immunodeficient (homozygous recessive scid/scid, beige/beige) mice.
Compound 13-7-2 was injected at a dose of 100 mg/kg, 150 mg/kg, and 200 mg/kg in mice divided in groups of two. […] One mouse injected with 150 mg/kg died at 6 hr whereas one mouse injected with 200 mg/kg dose died at 24 hr. One mouse injected with 100 mg/kg dose died at 48 hr.
Compound 13-9-1 was injected at a dose of 100 mg/kg, 150 mg/kg, and 200 mg/kg in mice divided in groups of two.

[2] = mouse, in vivo
Procedure: To estimate the maximum tolerated dose of compounds 13-7-2 and 13-9-1 in mice, both compounds were dissolved in PBS and given to SCID mice by oral gavage.
Compound 13-7-2 was administered at a dose of 100 mg/kg, 150 mg/kg, or 200 mg/kg. Each dose group consisted of three mice.
Compound 13-9-1 was administered at a dose of 100 mg/kg, 150 mg/kg, or 200 mg/kg by oral gavage (three mice per dose group).
In a separate dose finding/toxicity test with compound 13-9-1, three mice received escalating doses of 50 mg/kg/day for 3 days, 100 mg/kg/day for 7 days, 200 mg/kg/day for 7 days, and 300 mg/kg/day for 3 days, given by oral gavage. Mice were monitored closely for toxic signs.

[3] = test system: MIA PaCa, PANC-1, AsPc, BxPc; assay: Growth inhibition, gemcitabine alone or plus de-ethylflavopereirine; assay type: cell-based; conditions: four pancreatic cancer cell lines
[4] = Homo sapiens, after any period of treatment, read-out: Minimum Dose (IC50) needed to decrease growth 50% or greater versus control

Compound | Growth Inhibition (LnCap) | IC50 (LnCap; [4]) [µM] | Growth Inhibition (RPWE-1) | IC50 (RPWE-1; [4]) [µM] | mice that died after IP injection ([1]; all doses tested (100, 150, 200 mg/kg)) [%] | time of death of one mouse ([1]; mouse, in vivo, ip, 100 mg/kg) [h] | time of death of one mouse ([1]; mouse, in vivo, ip, 150 mg/kg) [h] | time of death of one mouse ([1]; mouse, in vivo, ip, 200 mg/kg) [h] | adverse effects observed ([1]; mouse, in vivo, ip, 100 mg/kg) | tolerated dose, oral administration ([2]; SCID) | adverse effects observed ([2]; SCID, po, 100 mg/kg, 48 hr) | deaths ([2]; SCID, po, 150 mg/kg, 48 hr) | deaths ([2]; SCID, po, 200 mg/kg, 48 hr) | signs of distress ([2]; po, 200 mg/kg) | response of the cell lines to the drug alone [3]
CCc1ccc2c3[nH]c4ccccc4c3cc[n+]2c1 [Compound 13-7-2, flavopereirine] | Yes | 10 | Yes | 10 | 50 | 48 | 6 | 24 | swollen abdomen | up to 100 mg/kg | No signs of distress were observed in the 100 mg/kg group of mice with the exception of bradycardia 15 min after the administration of the compound in one mouse | two mice died 15 min after administration of the compound and one mouse died 48 hr after administration of the compound | One mouse from this group died 24 hr after the administration of the compound | two mice exhibited signs of distress which included rapid breathing, bradycardia, shut eyes, and lethargy | 
Nc1ccn([C@@H]2O[C@H](CO)[C@@H](O)C2(F)F)c(=O)n1 [gemcitabine] |  |  |  |  |  |  |  |  |  |  |  |  |  |  | all four of the pancreatic cancer cell lines are resistant; also recorded: some resistance
